Experimental data: patent publication US8377945B2, “Small molecule inhibitors of spleen tyrosine kinase (SYK)” (Rigel Pharmaceuticals Inc., priority 2009, dated 2013)

Legend:
[1] = tested on: Human mast cells (CHMC cells); experiment: Tryptase release assay (mast cell degranulation induced by anti-IgG FcγR cross-linking); type: cell-based; conditions: IC50 of tryptase release from human mast cells after anti-IgG stimulation, read-out: LD Tryptase
Protocol: Compounds were assayed for inhibition of mast cell activation induced by FcγR cross-linking by measuring the activity of tryptase released upon degranulation as follows:
Human mast cells were cultured and differentiated from […] progenitor cell as described in U.S. Patent Publication No. 2005-234049, incorporated herein by reference. For example, 65 μl of various concentrations of the compound to be assayed were prepared in MT (137 mM NaCl, 2.7 mM KCl, 1.8 mM CaCl2, 1.0 mM MgCl2, 5.6 mM Glucose, 20 mM Hepes (pH 7.4), 0.1% Bovine Serum Albumin, (Sigma A4503)) containing 2% MeOH and 1% DMSO, or control buffer were added to duplicate 96-well V-bottom plates. Pelleted and resuspended (in warm MT) CHMC cells (65 μl) were added to each 96-well plate, mixed and incubated for 1 hour at 37° C. 25 μl of 6× anti-IgG Rabbit anti-human IgG, Affinity purified (Bethyl Laboratories Cat No. A80-105A3) final concentration 1 μg/ml, was added to the test wells. MT (25 μl) was added to control wells. After a 60-minute incubation at 37° C., cells and cell debris were pelleted by centrifugation at 1000 rpm for 10 min and tryptase and leukotriene C4 levels were measured.
To measure tryptase levels, 25 μl of supernatant from each well was transferred to a fresh 96-well black bottom plate, to which 100 μl of fresh tryptase substrate solution [(Z-Ala-Lys-Arg-AMC2TFA; Enzyme Systems Products, #AMC-246)] 1:2000 in tryptase assay buffer [0.1 M Hepes (pH 7.5), 10% w/v Glycerol, 10 μM Heparin (Sigma H-4898) 0.01% NaN3] was added. After 30 minute incubation at room temperature, the optical density of the plates is measured at 355 nm/460 nm on a spectrophotometric plate reader. Table 2 provides the IC50 values.

[2] = molecular target: T1, Syk kinase (Homo sapiens, UniProt P43405); experiment: ELISA-based Syk kinase assay (phosphorylation of HS1 peptide substrate by isolated Syk kinase); type: biochemical; conditions: IC50 of Syk kinase inhibition; 2 μM ATP, 2 μM peptide substrate
T1 construct: purchased Millipore 14-314
In short: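 Recombinant Syk (0.25 ng) phosphorylated biotinylated HS1 peptide (2 μM) with 2 μM ATP in 20 mM HEPES pH 7.4, 5 mM MgCl2, 2 mM MnCl2, 1 mM DTT, 0.01% Tween 20, 3% DMSO, 30 min at room temperature on neutravidin plates. Phosphotyrosine detected by anti-pTyr/HRP chemiluminescent ELISA.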

IC50 [1]	IC50 [2]	SMILES
> 5000 µM	< 0.5 µM	COc1cc(-c2[nH]c3c(C#N)cnn3c2Nc2ccc(CNC(=O)c3cccnc3C)cc2)cc(OC)c1OC [Compound 152]
< 10 µM	< 0.5 µM	COc1cc(-c2[nH]c3c(C#N)cnn3c2Nc2ccc(CNC(=O)c3cccnc3OC)cc2)cc(OC)c1OC [Compound 153]
11 to 100 µM	0.51 to 2.99 µM	COc1cc(-c2[nH]c3c(C#N)cnn3c2Nc2ccc(CNC(=O)c3ccc(C)nc3)cc2)cc(OC)c1OC [Compound 154]

Continued, compound first:

SMILES	IC50 [1]	IC50 [2]
COc1cc(-c2[nH]c3c(C#N)cnn3c2Nc2ccc(CNC(=O)c3cnccc3C(F)(F)F)cc2)cc(OC)c1OC [Compound 155]	< 10 µM	0.51 to 2.99 µM
COc1cc(-c2[nH]c3c(C#N)cnn3c2Nc2ccc(CNC(=O)c3ccc(C(F)(F)F)nc3)cc2)cc(OC)c1OC [Compound 156]	< 10 µM	0.51 to 2.99 µM
COc1cc(-c2[nH]c3c(C#N)cnn3c2Nc2ccc(SC)c(F)c2)cc(OC)c1OC [Compound 157]	11 to 100 µM	< 0.5 µM
